Reference: patent publication US12545640B2, “Substituted 6,7-dihydro-5H-benzo[7]annulene compounds, processes for their preparation and therapeutic uses thereof” (SANOFI, priority 2019, dated 2026)

Biological target: T1, ERα (Homo sapiens, UniProt P03372)
T1 construct: host or cells: MCF7 cells
T1 sequence (P03372 1-595): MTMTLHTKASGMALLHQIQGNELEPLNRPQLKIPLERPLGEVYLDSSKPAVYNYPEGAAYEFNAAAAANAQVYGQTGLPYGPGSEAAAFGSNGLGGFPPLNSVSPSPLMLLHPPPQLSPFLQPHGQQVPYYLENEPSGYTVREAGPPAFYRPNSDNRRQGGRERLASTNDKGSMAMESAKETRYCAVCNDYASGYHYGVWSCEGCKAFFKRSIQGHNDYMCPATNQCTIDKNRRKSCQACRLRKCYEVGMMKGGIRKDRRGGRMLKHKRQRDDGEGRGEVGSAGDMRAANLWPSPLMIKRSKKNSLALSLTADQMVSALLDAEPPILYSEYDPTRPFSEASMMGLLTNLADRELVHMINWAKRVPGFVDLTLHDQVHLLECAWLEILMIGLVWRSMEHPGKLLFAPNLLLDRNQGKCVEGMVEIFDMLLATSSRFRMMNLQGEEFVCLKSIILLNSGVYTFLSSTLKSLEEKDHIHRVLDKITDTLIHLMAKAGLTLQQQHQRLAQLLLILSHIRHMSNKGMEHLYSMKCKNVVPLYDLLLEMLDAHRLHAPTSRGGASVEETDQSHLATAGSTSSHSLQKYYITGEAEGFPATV
Assay: Estrogen receptor degradation activity: breast cancer cell ERα in cell western assay (MCF7 cells)
Type: cell-based
Details: 4 hours, final concentrations ranging from 3-0.000018 μM, relative to fulvestrant 0.1 μM positive control
Procedure: Test: Estrogen Receptor Degradation Activity
Said test involves measuring the in vitro degradation activity of the compounds of the invention.
The measurements of the degradation activities were made using a breast cancer cell ERα in cell western assay as described hereunder.
MCF7 cells (ATCC) were seeded in 384 wells microplate (collagen coated) at a concentration of 10000 cells/30 μL, per well in red phenol free MEM alpha medium (invitrogen) containing 5% charcoal dextran striped FBS. The following day, 9 points serial 1:5 dilution of each compound was added to the cells in 2.5 μL at final concentrations ranging either from 3-0.000018 μM (column «% Degradation at 3 μM in table 2) or from 0.3-0.0000018 μM (column «% Degradation at 0.3 μM in table 2), or 0.1 μM for fulvestrant (using as positive control). At 4 hours post compound addition the cells were fixed by adding 25 μL of formalin (final concentration 5% formalin containing 0.1% triton) for 10 minutes at room temperature and then washed twice with PBS. Then, 50 μL of LI-COR blocking buffer containing 0.1% Triton was added to plate for 30 minutes at room temperature. LI-COR blocking buffer was removed and cells were incubated overnight at cold room with 50 μL anti-ER rabbit monoclonal antibody (Thermo scientific MA1-39540) diluted at 1:1000 in LI-COR blocking buffer containing 0.1% tween-20. Wells which were treated with blocking buffer but no antibody were used as background control. Wells were washed twice with PBS (0.1% tween-20) and incubated at 37° C. for 60 minutes in LI-COR (0.1% tween-20) containing goat anti-rabbit antibody Alexa 488 (1:1000) and Syto-64 a DNA dye ([…]). Cells were then washed 3 times in PBS and scanned in ACUMEN explorer (TTP-Labtech). Integrated intensities in the green fluorescence and red fluorescence were measured to determine the levels of ERα and DNA respectively.

Row | SMILES | % Degradation At 3 μM
1 | CC1(C)OB(c2ccc3c(c2)CCCC(c2ccc(Cl)cc2Cl)=C3c2ccc(O[C@H]3CCN(CCCF)C3)cc2)OC1(C)C [Example 1, (S)-3-(4-(8-(2,4-dichlorophenyl)-3-(4,4,5,5-tetramethyl-1,3,2-dioxaborolan-2-yl)-6,7-dihydro-5H-benzo[7]annulen-9-yl)phenoxy)-1-(3-fluoropropyl)pyrrolidine] | 86%
2 | Oc1cc(-c2ccc3c(c2)CCCC(c2ccc(Cl)cc2Cl)=C3c2ccc(O[C@H]3CCN(CCCF)C3)cc2)on1 [Example 4, (S)-5-(8-(2,4-dichlorophenyl)-9-(4-((1-(3-fluoropropyl)pyrrolidin-3-yl)oxy)phenyl)-6,7-dihydro-5H-benzo[7]annulen-3-yl)isoxazol-3-ol] | 87%
3 | FCCCN1CC[C@H](Oc2ccc(C3=C(c4ccc(Cl)cc4Cl)CCCc4cc(-c5nncs5)ccc43)cc2)C1 [Example 9, (S)-2-(8-(2,4-dichlorophenyl)-9-(4-((1-(3-fluoropropyl)pyrrolidin-3-yl)oxy)phenyl)-6,7-dihydro-5H-benzo[7]annulen-3-yl)-1,3,4-thiadiazole] | 79%
4 | O=c1cc(-c2ccc3c(c2)CCCC(c2ccc(Cl)cc2Cl)=C3c2ccc(O[C@H]3CCN(CCCF)C3)cc2)[nH][nH]1 [Example 12, (S)-5-(8-(2,4-dichlorophenyl)-9-(4-((1-(3-fluoropropyl)pyrrolidin-3-yl)oxy)phenyl)-6,7-dihydro-5H-benzo[7]annulen-3-yl)-1,2-dihydro-3H-pyrazol-3-one] | 83%
5 | FCCCN1CC[C@H](Oc2ccc(C3=C(c4ccc(Cl)cc4Cl)CCCc4cc(-c5nn[nH]n5)ccc43)cc2)C1 [Example 16, (S)-5-(8-(2,4-dichlorophenyl)-9-(4-((1-(3-fluoropropyl)pyrrolidin-3-yl)oxy)phenyl)-6,7-dihydro-5H-benzo[7]annulen-3-yl)-2H-tetrazole] | 86%
6 | O=C(Nc1nn[nH]n1)c1ccc2c(c1)CCCC(c1ccc(Cl)cc1Cl)=C2c1ccc(O[C@H]2CCN(CCCF)C2)cc1 [Example 17, (S)-8-(2,4-dichlorophenyl)-9-(4-((1-(3-fluoropropyl)pyrrolidin-3-yl)oxy)phenyl)-N-(2H-tetrazol-5-yl)-6,7-dihydro-5H-benzo[7]annulene-3-carboxamide] | 84%
7 | FCCCN1CC[C@H](Oc2ccc(C3=C(c4ccc(Cl)cc4Cl)CCCc4cc(-c5cn[nH]c5)ccc43)cc2)C1 [Example 21, (S)-4-(8-(2,4-dichlorophenyl)-9-(4-((1-(3-fluoropropyl)pyrrolidin-3-yl)oxy)phenyl)-6,7-dihydro-5H-benzo[7]annulen-3-yl)-1H-pyrazole] | 78%
8 | FCCCN1CC[C@H](Oc2ccc(C3=C(c4ccc(OC(F)(F)F)cc4)CCCc4cc(-c5cn[nH]c5)ccc43)cc2)C1 [Example 23, (S)-4-(9-(4-((1-(3-fluoropropyl)pyrrolidin-3-yl)oxy)phenyl)-8-(4-(trifluoromethoxy)phenyl)-6,7-dihydro-5H-benzo[7]annulen-3-yl)-1H-pyrazole] | 74%
9 | FCCCN1CC[C@H](Oc2ccc(C3=C(c4ccc(OC(F)(F)F)cc4)CCCc4cc(OC(F)F)ccc43)cc2)C1 [Example 24, (S)-3-(4-(3-(difluoromethoxy)-8-(4-(trifluoromethoxy)phenyl)-6,7-dihydro-5H-benzo[7]annulen-9-yl)phenoxy)-1-(3-fluoropropyl)pyrrolidine] | 74%

Second part, the molecule after the results:

Row | % Degradation At 3 μM | SMILES
10 | 95% | NC(=O)c1ccc2c(c1)CCCC(c1ccc(Cl)cc1Cl)=C2c1ccc(O[C@H]2CCN(CCCF)C2)cc1 [Example 3, (S)-8-(2,4-dichlorophenyl)-9-(4-((1-(3-fluoropropyl)pyrrolidin-3-yl)oxy)phenyl)-6,7-dihydro-5H-benzo[7]annulene-3-carboxamide]
11 | 93% | OC(c1ccc2c(c1)CCCC(c1ccc(Cl)cc1Cl)=C2c1ccc(O[C@H]2CCN(CCCF)C2)cc1)C(F)F (stereo partly drawn) [Example 5, 1-(8-(2,4-dichlorophenyl)-9-(4-(((S)-1-(3-fluoropropyl)pyrrolidin-3-yl)oxy)phenyl)-6,7-dihydro-5H-benzo[7]annulen-3-yl)-2,2-difluoroethan-1-ol]
12 | 88% | NNC(=O)c1ccc2c(c1)CCCC(c1ccc(Cl)cc1Cl)=C2c1ccc(O[C@H]2CCN(CCCF)C2)cc1 [Example 6, (S)-8-(2,4-dichlorophenyl)-9-(4-((1-(3-fluoropropyl)pyrrolidin-3-yl)oxy)phenyl)-6,7-dihydro-5H-benzo[7]annulene-3-carbohydrazide]
13 | 86% | FCCCN1CC[C@H](Oc2ccc(C3=C(c4ccc(Cl)cc4Cl)CCCc4cc(-c5nnco5)ccc43)cc2)C1 [Example 7, (S)-2-(8-(2,4-dichlorophenyl)-9-(4-((1-(3-fluoropropyl)pyrrolidin-3-yl)oxy)phenyl)-6,7-dihydro-5H-benzo[7]annulen-3-yl)-1,3,4-oxadiazole]
14 | 92% | OC(c1ccc2c(c1)CCCC(c1ccc(Cl)cc1Cl)=C2c1ccc(O[C@H]2CCN(CCCF)C2)cc1)C(F)(F)F (stereo partly drawn) [Example 10, 1-(8-(2,4-dichlorophenyl)-9-(4-(((S)-1-(3-fluoropropyl)pyrrolidin-3-yl)oxy)phenyl)-6,7-dihydro-5H-benzo[7]annulen-3-yl)-2,2,2-trifluoroethan-1-ol]
15 | 76% | O=C1CC(c2ccc3c(c2)CCCC(c2ccc(Cl)cc2Cl)=C3c2ccc(O[C@H]3CCN(CCCF)C3)cc2)=NO1 [Example 13, (S)-3-(8-(2,4-dichlorophenyl)-9-(4-((1-(3-fluoropropyl)pyrrolidin-3-yl)oxy)phenyl)-6,7-dihydro-5H-benzo[7]annulen-3-yl)isoxazol-5(4H)-one]
16 | 90% | NC(=O)NNC(=O)c1ccc2c(c1)CCCC(c1ccc(Cl)cc1Cl)=C2c1ccc(O[C@H]2CCN(CCCF)C2)cc1 [Example 14, (S)-2-(8-(2,4-dichlorophenyl)-9-(4-((1-(3-fluoropropyl)pyrrolidin-3-yl)oxy)phenyl)-6,7-dihydro-5H-benzo[7]annulene-3-carbonyl)hydrazine-1-carboxamide]
17 | 90% | CS(=O)(=O)NC(=O)c1ccc2c(c1)CCCC(c1ccc(Cl)cc1Cl)=C2c1ccc(O[C@H]2CCN(CCCF)C2)cc1 [Example 15, (S)-8-(2,4-dichlorophenyl)-9-(4-((1-(3-fluoropropyl)pyrrolidin-3-yl)oxy)phenyl)-(methylsulfonyl)-6,7-dihydro-5H-benzo[7]annulene-3-carboxamide]
18 | 85% | O=C(NO)c1ccc2c(c1)CCCC(c1ccc(Cl)cc1Cl)=C2c1ccc(O[C@H]2CCN(CCCF)C2)cc1 [Example 18, (S)-8-(2,4-dichlorophenyl)-9-(4-((1-(3-fluoropropyl)pyrrolidin-3-yl)oxy)phenyl)-N-hydroxy-6,7-dihydro-5H-benzo[7]annulene-3-carboxamide]
19 | 86% | CONC(=O)c1ccc2c(c1)CCCC(c1ccc(Cl)cc1Cl)=C2c1ccc(O[C@H]2CCN(CCCF)C2)cc1 [Example 19, (S)-8-(2,4-dichlorophenyl)-9-(4-((1-(3-fluoropropyl)pyrrolidin-3-yl)oxy)phenyl)-N-methoxy-6,7-dihydro-5H-benzo[7]annulene-3-carboxamide]
20 | 85% | O=C(O)/C=C/c1ccc2c(c1)CCCC(c1ccc(Cl)cc1Cl)=C2c1ccc(O[C@H]2CCN(CCCF)C2)cc1 [Example 20, (S,E)-3-(8-(2,4-dichlorophenyl)-9-(4-((1-(3-fluoropropyl)pyrrolidin-3-yl)oxy)phenyl)-6,7-dihydro-5H-benzo[7]annulen-3-yl)acrylic acid]
21 | 82% | N#Cc1ccc2c(c1)CCCC(c1ccc(Cl)cc1Cl)=C2c1ccc(O[C@H]2CCN(CCCF)C2)cc1 [Example 22, (S)-8-(2,4-dichlorophenyl)-9-(4-((1-(3-fluoropropyl)pyrrolidin-3-yl)oxy)phenyl)-6,7-dihydro-5H-benzo[7]annulene-3-carbonitrile]
